In the supplement of paper PMC11451515:

Assays:
Settings in all cases: 48 h
SEM cells [1] = experiment: cell viability relative to DMSO control; higher = less cytotoxic
Procedure, shortened: (§1)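 Leukemia cells (NOMO1 or SEM, 500 cells/well; P12-Ichikawa, 1000 cells/well) were seeded in 5 μl in 1536-well plates after at least four passages of adaptation to each medium. They received library compounds in DMSO by pin dosing, 11 threefold points from 47 μM to 0.79 nM. Luminescence with CellTiter-Glo One was read after 48 h at 37°C. Viability is stated per plate relative to DMSO wells, with cell-free wells as background.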

NOMO1 [2] = experiment: as above
Procedure, shortened: as §1

P12-Ichikawa [3] = experiment: as above
Procedure, shortened: as §1

SEM cells [4] = experiment: AUC of viability dose-response curve (% viability x log10 dose units); higher = less sensitive
Procedure, shortened: (§2)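 Leukemia cells adapted to each medium were seeded in 1536-well plates (500 or 1000 cells/well) and given library compounds in DMSO for 48 h at 37°C. The 11 threefold doses spanned 47 μM to 0.79 nM, and CellTiter-Glo One luminescence was normalised per plate to DMSO and cell-free wells before four-parameter log-logistic fitting on log10 dose. Area under the curve was integrated with the trapezoidal rule, scaling curves above full viability and removing curves that failed quality control.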

NOMO1 [5] = experiment: as above
Procedure, shortened: as §2

P12-Ichikawa [6] = experiment: as above
Procedure, shortened: as §2

OC1=CC2=C(C(=O)\C=C(/O2)C3=CC=CC=C3)C(=C1O)O
cell viability [%]
Settings | NOMO1 [2] | P12-Ichikawa [3] | SEM cells [1]
HPLM + 10% dialyzed FBS, 0.000781 µM | 93.6 | 114 | 105
HPLM + 10% dialyzed FBS, 0.00234 µM | 102 | 110 | 116
HPLM + 10% dialyzed FBS, 0.00702 µM | 117 | 120 | 106
HPLM + 10% dialyzed FBS, 0.0211 µM | 107 | 113 | 103
HPLM + 10% dialyzed FBS, 0.0632 µM | 111 | 113 | 111
HPLM + 10% dialyzed FBS, 0.19 µM | 106 | 106 | 109
HPLM + 10% dialyzed FBS, 0.569 µM | 108 | 111 | 104
HPLM + 10% dialyzed FBS, 1.71 µM | 92.2 | 109 | 93.3
HPLM + 10% dialyzed FBS, 5.12 µM | 72.6 | 64.9 | 77.5
HPLM + 10% dialyzed FBS, 15.4 µM | 82.8 | 9.59 | 25.6
HPLM + 10% dialyzed FBS, 46.1 µM | 83.1 | 10.4 | 23.8
RPMI 5 mM glucose + 10% FBS, 0.000781 µM | 118 | 117 | –
RPMI 5 mM glucose + 10% FBS, 0.00234 µM | 105 | 112 | –
RPMI 5 mM glucose + 10% FBS, 0.00702 µM | 105 | 104 | –
RPMI 5 mM glucose + 10% FBS, 0.0211 µM | 115 | 118 | –
RPMI 5 mM glucose + 10% FBS, 0.0632 µM | 96.8 | 120 | –
RPMI 5 mM glucose + 10% FBS, 0.19 µM | 111 | 111 | –
RPMI 5 mM glucose + 10% FBS, 0.569 µM | 103 | 117 | –
RPMI 5 mM glucose + 10% FBS, 1.71 µM | 111 | 116 | –
RPMI 5 mM glucose + 10% FBS, 5.12 µM | 84 | 114 | –
RPMI 5 mM glucose + 10% FBS, 15.4 µM | 52.4 | 13.3 | –
RPMI 5 mM glucose + 10% FBS, 46.1 µM | 57.4 | 12 | –
RPMI 5 mM glucose + 10% dialyzed FBS, 0.000781 µM | 113 | 113 | 108
RPMI 5 mM glucose + 10% dialyzed FBS, 0.00234 µM | 108 | 117 | 94.4
RPMI 5 mM glucose + 10% dialyzed FBS, 0.00702 µM | 110 | 120 | 102
RPMI 5 mM glucose + 10% dialyzed FBS, 0.0211 µM | 107 | 112 | 94.5
RPMI 5 mM glucose + 10% dialyzed FBS, 0.0632 µM | 102 | 111 | 104
RPMI 5 mM glucose + 10% dialyzed FBS, 0.19 µM | 112 | 110 | 99.5
RPMI 5 mM glucose + 10% dialyzed FBS, 0.569 µM | 106 | 112 | 106
RPMI 5 mM glucose + 10% dialyzed FBS, 1.71 µM | 98.6 | 118 | 102
RPMI 5 mM glucose + 10% dialyzed FBS, 5.12 µM | 96 | 108 | 69.5
RPMI 5 mM glucose + 10% dialyzed FBS, 15.4 µM | 55.2 | 23.7 | 16.7
RPMI 5 mM glucose + 10% dialyzed FBS, 46.1 µM | 64.9 | 23.2 | 14.6

AUC of viability dose-response curve
Settings | NOMO1 [5] | P12-Ichikawa [6] | SEM cells [4]
HPLM + 10% dialyzed FBS | 441 | 391 | 407
RPMI 5 mM glucose + 10% FBS | 431 | 413 | 379
RPMI 5 mM glucose + 10% dialyzed FBS | 441 | 418 | 402

Cc1nnc(N[S+](=O)([O-])c2ccc(N)cc2)s1
AUC of viability dose-response curve
Settings | HPLM + 10% dialyzed FBS | RPMI 5 mM glucose + 10% FBS | RPMI 5 mM glucose + 10% dialyzed FBS
P12-Ichikawa [6] | 390 | 394 | 412
SEM cells [4] | 450 | 443 | 449

C=CC(=O)Nc1cccc(Oc2nc(Nc3ccc(N4CCN(C)CC4)cc3OC)ncc2Cl)c1
cell viability [%]
Settings | NOMO1 [2] | P12-Ichikawa [3] | SEM cells [1]
HPLM + 10% dialyzed FBS, 0.000781 µM | 64.3 | 75 | 58.4
HPLM + 10% dialyzed FBS, 0.00234 µM | 69.5 | 79.3 | 72.7
HPLM + 10% dialyzed FBS, 0.00702 µM | 78.3 | 78.4 | 56.4
HPLM + 10% dialyzed FBS, 0.0211 µM | 79.1 | 84.9 | 65.8
HPLM + 10% dialyzed FBS, 0.0632 µM | 81.9 | 84.7 | 74
HPLM + 10% dialyzed FBS, 0.19 µM | 80.6 | 86.3 | 81.1
HPLM + 10% dialyzed FBS, 0.569 µM | 73.9 | 83 | 72.3
HPLM + 10% dialyzed FBS, 1.71 µM | 76.5 | 79.6 | 68.5
HPLM + 10% dialyzed FBS, 5.12 µM | 54.7 | 76.5 | 33.2
HPLM + 10% dialyzed FBS, 15.4 µM | 45.1 | 70.6 | 48
HPLM + 10% dialyzed FBS, 46.1 µM | 33.3 | 52.2 | 13.3
RPMI 5 mM glucose + 10% FBS, 0.000781 µM | 72.9 | 68 | 80.4
RPMI 5 mM glucose + 10% FBS, 0.00234 µM | 74.3 | 76 | 89.2
RPMI 5 mM glucose + 10% FBS, 0.00702 µM | 79.3 | 76.1 | 60.5
RPMI 5 mM glucose + 10% FBS, 0.0211 µM | 78.8 | 79.5 | 88.2
RPMI 5 mM glucose + 10% FBS, 0.0632 µM | 87.1 | 80.9 | 94.2
RPMI 5 mM glucose + 10% FBS, 0.19 µM | 102 | 83.7 | 91.2
RPMI 5 mM glucose + 10% FBS, 0.569 µM | 82.1 | 80.1 | 56.4
RPMI 5 mM glucose + 10% FBS, 1.71 µM | 52.1 | 82.1 | 65.3
RPMI 5 mM glucose + 10% FBS, 5.12 µM | 67.3 | 66 | 22.6
RPMI 5 mM glucose + 10% FBS, 15.4 µM | 62.1 | 58.3 | 41.6
RPMI 5 mM glucose + 10% FBS, 46.1 µM | 55.8 | 50.3 | 5.05
RPMI 5 mM glucose + 10% dialyzed FBS, 0.000781 µM | 69.6 | 73 | 62.5
RPMI 5 mM glucose + 10% dialyzed FBS, 0.00234 µM | 77.9 | 89.4 | 69.8
RPMI 5 mM glucose + 10% dialyzed FBS, 0.00702 µM | 79.4 | 82.8 | 52.6
RPMI 5 mM glucose + 10% dialyzed FBS, 0.0211 µM | 85.8 | 79.9 | 58.2
RPMI 5 mM glucose + 10% dialyzed FBS, 0.0632 µM | 80.6 | 81.6 | 70.8
RPMI 5 mM glucose + 10% dialyzed FBS, 0.19 µM | 79.2 | 80.9 | 72.9
RPMI 5 mM glucose + 10% dialyzed FBS, 0.569 µM | 77.3 | 74.6 | 64.1
RPMI 5 mM glucose + 10% dialyzed FBS, 1.71 µM | 87.9 | 83.3 | 42.3
RPMI 5 mM glucose + 10% dialyzed FBS, 5.12 µM | 66.1 | 70.6 | 24.1
RPMI 5 mM glucose + 10% dialyzed FBS, 15.4 µM | 72.2 | 64.7 | 41.8
RPMI 5 mM glucose + 10% dialyzed FBS, 46.1 µM | 45.5 | 49.5 | 18

AUC of viability dose-response curve
Settings | HPLM + 10% dialyzed FBS | RPMI 5 mM glucose + 10% FBS | RPMI 5 mM glucose + 10% dialyzed FBS
NOMO1 [5] | 325 | 355 | 362
P12-Ichikawa [6] | 374 | 351 | 365

CNC1CCCN(c2c(F)cc3c(=O)c(C(=O)O)cn(C4CC4)c3c2OC)C1 (centres undefined)
SEM cells [1], HPLM + 10% dialyzed FBS
Settings | cell viability [%]
0.000781 µM | 120
0.00234 µM | 123
0.00702 µM | 131
0.0211 µM | 139
0.0632 µM | 134
0.19 µM | 125
0.569 µM | 133
1.71 µM | 122
5.12 µM | 115
15.4 µM | 117
46.1 µM | 113

AUC of viability dose-response curve
Settings | HPLM + 10% dialyzed FBS | RPMI 5 mM glucose + 10% FBS | RPMI 5 mM glucose + 10% dialyzed FBS
P12-Ichikawa [6] | 432 | 441 | 443
SEM cells [4] | 462 | 445 | 456

NCCS(=O)(=O)O
AUC of viability dose-response curve
Settings | NOMO1 [5] | P12-Ichikawa [6] | SEM cells [4]
HPLM + 10% dialyzed FBS | 441 | 469 | 463
RPMI 5 mM glucose + 10% FBS | 455 | 458 | 471
RPMI 5 mM glucose + 10% dialyzed FBS | 449 | 463 | 468
